Legend:
[1] = Half life in phosphate buffer at pH 7.4 by HPLC analysis; assay type: physicochemical
[2] = biological target: T1, Liver carboxylesterase 1 (Homo sapiens, UniProt P23141); assay: Reversible inhibition of human CES1 assessed as hydrolysis of 4NPA to 4NP
T1 sequence (P23141 whole entry): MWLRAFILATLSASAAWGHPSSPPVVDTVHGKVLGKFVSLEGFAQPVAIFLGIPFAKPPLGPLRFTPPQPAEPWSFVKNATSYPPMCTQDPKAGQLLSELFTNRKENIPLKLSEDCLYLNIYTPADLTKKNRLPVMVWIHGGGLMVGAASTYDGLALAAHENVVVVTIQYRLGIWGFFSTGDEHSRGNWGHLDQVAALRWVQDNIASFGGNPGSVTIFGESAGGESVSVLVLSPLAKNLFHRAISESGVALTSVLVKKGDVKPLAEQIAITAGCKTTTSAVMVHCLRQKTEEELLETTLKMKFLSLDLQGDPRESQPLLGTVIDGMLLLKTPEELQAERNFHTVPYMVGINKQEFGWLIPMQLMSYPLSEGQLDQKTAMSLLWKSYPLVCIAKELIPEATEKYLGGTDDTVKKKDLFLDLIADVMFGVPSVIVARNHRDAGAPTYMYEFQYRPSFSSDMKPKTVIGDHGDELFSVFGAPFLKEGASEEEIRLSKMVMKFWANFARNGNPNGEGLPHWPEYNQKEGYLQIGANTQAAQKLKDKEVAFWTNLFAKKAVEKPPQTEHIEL

[3] = biological target: T2, Cocaine esterase (Homo sapiens, UniProt O00748); assay: Inhibition of human CES2 assessed as hydrolysis of 4NPA to 4NP at 1 mM by spectrophotometric analysis; settings: 1000 µM
T2 sequence (O00748 whole entry): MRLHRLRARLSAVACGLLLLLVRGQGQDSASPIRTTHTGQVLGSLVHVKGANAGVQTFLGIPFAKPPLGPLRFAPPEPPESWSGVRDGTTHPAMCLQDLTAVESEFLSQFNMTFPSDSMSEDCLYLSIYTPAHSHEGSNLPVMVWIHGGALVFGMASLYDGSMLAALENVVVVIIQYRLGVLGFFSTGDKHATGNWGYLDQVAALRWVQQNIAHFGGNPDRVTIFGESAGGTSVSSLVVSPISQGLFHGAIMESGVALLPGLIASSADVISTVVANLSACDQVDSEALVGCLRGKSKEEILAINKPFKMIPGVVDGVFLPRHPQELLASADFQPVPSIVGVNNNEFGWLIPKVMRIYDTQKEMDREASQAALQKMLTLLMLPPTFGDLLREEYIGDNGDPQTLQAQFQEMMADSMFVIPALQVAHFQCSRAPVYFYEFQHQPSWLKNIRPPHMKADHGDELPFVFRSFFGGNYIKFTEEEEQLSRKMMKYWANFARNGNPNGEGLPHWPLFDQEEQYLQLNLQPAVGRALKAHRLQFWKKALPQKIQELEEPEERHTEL

[4] = Half life in phosphate buffer at 10 uM at pH 7.4 by LC/TOF-MS analysis; assay type: physicochemical
[5] = Half life of the compound; assay type: physicochemical
[6] = biological target: T1, Liver carboxylesterase 1; assay: Inhibition of human CES1 assessed as hydrolysis of 4NPA to 4NP at 1 mM by spectrophotometric analysis; settings: 1000 µM
[7] = biological target: T1, Liver carboxylesterase 1; assay: Activity of human CES1 assessed as loss of 1-O-acyl glucuronide at 100 uM measured at 60 mins by LC/TOF-MS analysis relative to control; assay type: ADME; settings: 1 h
[8] = biological target: T1, Liver carboxylesterase 1; assay: Activity of human CES1 assessed as loss of 1-O-acyl glucuronide at 100 uM measured at 10 mins by LC/TOF-MS analysis relative to control; assay type: ADME
[9] = biological target: T1, Liver carboxylesterase 1; assay: Activity of human CES1 assessed as loss of 1-O-acyl glucuronide at 100 uM measured at 30 mins by LC/TOF-MS analysis relative to control; assay type: ADME; settings: 0.5 h
[10] = biological target: T1, Liver carboxylesterase 1; assay: Time-dependent inhibition of human CES1 assessed as hydrolysis of 4NPA to 4NP preincubated for 60 mins followed by 4NPA addition
[11] = biological target: T1, Liver carboxylesterase 1; assay: Time-dependent inhibition of human CES1 assessed as hydrolysis of 4NPA to 4NP preincubated for 30 mins followed by 4NPA addition
[12] = biological target: T1, Liver carboxylesterase 1; assay: Time-dependent inhibition of human CES1 assessed as hydrolysis of 4NPA to 4NP preincubated for 10 mins followed by 4NPA addition
[13] = Half life in buffer at pH 7.4 by 1H NMR spectroscopic analysis in presence of human urine; assay type: physicochemical; settings: buffer with human urine
[14] = biological target: T2, Cocaine esterase; assay: Inhibition of human CES2

| Ki [2] [µM] | inhibition (INH) [3] | half-life at 10 µM [4] [h] | Structure (SMILES) | further results |
| --- | --- | --- | --- | --- |
| – | – | – | CC(C)Cc1ccc([C@@H](C)C(=O)O[C@@H]2O[C@H](C(=O)O)[C@@H](O)[C@H](O)[C@H]2O)cc1 | half-life [1]: 1.8 h |
| – | – | – | CC(C)Cc1ccc([C@H](C)C(=O)O[C@@H]2O[C@H](C(=O)O)[C@@H](O)[C@H](O)[C@H]2O)cc1 | half-life [1]: 3.3 h |
| 24.8 | Not Active | 5.02 | O=C(O)[C@H]1O[C@@H](OC(=O)[C@H](c2ccccc2Cl)N2CCc3sccc3C2)[C@H](O)[C@@H](O)[C@@H]1O | – |
| – | Not Active | 15.2 | CCCC(CCC)C(=O)O[C@@H]1O[C@H](C(=O)O)[C@@H](O)[C@H](O)[C@H]1O | half-life [5]: 60 h; inhibition (INH) [6]: Not Active |
| 468 | Not Active | 0.996 | COc1ccc2cc([C@@H](C)C(=O)O[C@@H]3O[C@H](C(=O)O)[C@@H](O)[C@H](O)[C@H]3O)ccc2c1 | – |
| 707 | Not Active | 1.77 | COc1ccc2cc([C@H](C)C(=O)O[C@@H]3O[C@H](C(=O)O)[C@@H](O)[C@H](O)[C@H]3O)ccc2c1 | – |
| 4.32 | Not Active | 0.537 | O=C(Cc1ccccc1Nc1c(Cl)cccc1Cl)O[C@@H]1O[C@H](C(=O)O)[C@@H](O)[C@H](O)[C@H]1O | Activity [7]: 75%; Activity [8]: 20%; Activity [9]: 50%; IC50 [10]: 2.27 µM; IC50 [11]: 1.96 µM; IC50 [12]: 2.51 µM |
| – | Not Active | 0.252 | O=C(O[C@@H]1O[C@H](C(=O)O)[C@@H](O)[C@H](O)[C@H]1O)c1cn(Cc2c(F)cccc2F)nn1 | inhibition (INH) [6]: Not Active |
| 355 | Not Active | 3.67 | CC(C)Cc1ccc(C(C)C(=O)O[C@@H]2O[C@H](C(=O)O)[C@@H](O)[C@H](O)[C@H]2O)cc1 (mixture of isomers) | half-life [13]: 3.5 h |
| – | – | – | CCCC(CCC)C(=O)O [VALPROIC ACID] | Ki [14]: 7900 µM |
